Data reported in patent US20110124574A1, “RESTORATION OF ESTROGEN RECEPTOR-(ALPHA) ACTIVITY” (priority 2008, published 2011).
Where no end group is shown, it is not given here. The star is where a group is joined. For = O=C*

Columns and labels:
[1] = tested on: murine ERα; test: In vivo ERα RT-PCR in 4T1 primary breast tumors of Balb/C mice; parameters: species or system mouse; settings: Balb/C mice with 4T1 cells in mammary fat pads, 20 μg every fourth day for 25 days
Protocol: 2.5×10^4 4T1 breast cancer cells were inoculated into the mammary fat pads of 8-week old Balb/C mice. The animals were subsequently treated with either PBS alone, the Rdm control peptide (20 μg) or Foxy-5 (20 μg), every 4th day, for 25 days. RNA was extracted from primary breast tumors from 4 animals in each group, and subjected to RT-PCR for murine ERα. Shown are primary tumor samples from two animals of each treatment group.
2.5×10^4 4T1 breast cancer cells were inoculated into the mammary fat pads of 8 week old Balb/C mice, that were subsequently treated with either PBS alone, the Rdm control peptide (20 μg), or Foxy-5 (20 μg) every 4th day, for 25 days as described in a previous publication from the inventors (9). RNA was extracted from flash frozen primary breast tumors from 4 animals in each group, and subjected to RT-PCR for murine ERα.

[2] = tested on: ERα; test: ERα protein expression by Western blot in stimulated MDA-MB-231 cells; format: cell-based, human; settings: stimulation 24 and 48 hours, rWnt-5a 0.6 μg/ml, rWnt-3a 0.1 μg/ml, peptides 100 μM
Protocol: Breast cancer cells were grown in 6 well plates, and stimulated with recombinant Wnt-5a protein (rW5a), the Wnt-5a derived Foxy-5 peptide (F5), recombinant Wnt-3a protein (rW3a), or a formylated random hexapeptide (Rdm) for 24 or 48 h. Following treatment cells were lysed and subjected to SDS-PAGE, transferred to nitrocellulose membranes and blotted for ERα expression. A: MDA-MB-231 cells stimulated with recombinant Wnt-5a, Foxy-5, Wnt-3a, Rdm. B: MDA-MB-468 cells stimulated with recombinant Wnt-5a or Foxy-5. C: 4T1 cells stimulated with recombinant Wnt-5a or Foxy-5. Positive controls (Pos) were included in order to confirm the correct band size for ERα. Two different positive controls were used: T47D cell lysates known to express ERα and MDA-MB-231 cells transiently transfected with a full length ERα plasmid, resulting in extremely high ERα expression (top row, right panel, third row, right panel).
Stimulation of cells was performed with recombinant Wnt-5a (0.6 μg/ml) and recombinant Wnt-3a (0.1 μg/ml and in a control experiment, 0.6 μg/ml) (R&D Systems Abington, UK) for times as indicated. The Wnt-5a derived formylated hexapeptide, Foxy-5 (formyl-MDGCEL) (SEQ. ID. NO. 1) designed in the laboratory of the inventors, and a formylated random hexapeptide (formyl-MSADVG) (SEQ: ID: NO: 16) were either synthesized by Pepscan Presto (Lelystad, The Netherlands) or Inbiolabs (Tallinn, Estonia). The peptides were purified by RP-HPLC and mass spectrometry, and the >95% pure peptides were synthesized three times. Cells were treated with Foxy-5 or random peptide at a concentration of 100 μM for times as indicated. All other chemicals if not otherwise stated were purchased from Sigma Chemicals (St. Louis, Mo.).
Cells were lysed in Triton lysis buffer (50 mM Tris (pH7.5), 1% Triton x-100, 140 mM NaCl, 0.5 mM EDTA, 0.5 MgCl2, 10 mM NaF) with the addition of fresh leupeptin (1 μg/ml), Pefabloc (2 mM), aprotinin (20 μg/ml) and Na3VO4 (4 mM). […] Scanning and densitometry was performed using a Bio-Rad (Hercules Calif.) GS-800 densitometer with Quantity One software. […]

Row | Molecule | ERα expression in primary tumors [1] | levels of ERα protein [2]
1 | formyl-MDGCEL (For-MDGCEL; listed as Homo sapiens) [Foxy-5] | strong ERα expression | –
2 | recombinant Wnt-5a: recombinant Wnt-5a protein (R&D Systems) (protein, UniProt P41221 62-380, looked up) Protein Wnt-5a: IIGAQPLCSQLAGLSQGQKKLCHLYQDHMQYIGEGAKTGIKECQYQFRHRRWNCSTVDNTSVFGRVMQIGSRETAFTYAVSAAGVVNAMSRACREGELSTCGCSRAARPKDLPRDWLWGGCGDNIDYGYRFAKEFVDARERERIHAKGSYESARILMNLHNNEAGRRTVYNLADVACKCHGVSGSCSLKTCWLQLADFRKVGDALKEKYDSAAAMRLNSRGKLVQVNSRFNSPTTQDLVYIDPSPDYCVRNESTGSLGTQGRLCNKTSEGMDGCELMCCGRGYDQFKTVQTERCHCKFHWCCYVKCKKCTEIVDQFVCK | – | increase
